Experimental data reported in patent US10335504B2, “Heterocyclic molecules for biomedical imaging and therapeutic applications” (Washington University, priority 2013, dated 2019).
Entries after “also recorded” stand apart in the source; their conditions may differ.

Legend:
Aβ plaques [1] = assay: Staining of human AD brain tissue sections; format: binding; conditions: person with AD; 50 nM
Experimental: Staining experiments were performed with human brain tissues. Tissue samples were obtained from the frontal lobe of clinically and neuropathologically well-characterized cases. The neuropathological diagnosis of AD was based on the criteria of the Consortium to Establish a Registry for Alzheimer's Disease (CERAD) (Mirra, S., et al. The Consortium to Establish a Registry for Alzheimer's Disease (CERAD). Part II. Standardization of the neuropathologic assessment of Alzheimer's disease. Neurology 41, 479-486 (1991)) or the National Institute of Aging-Reagan Institute (NIA-RI) (Hyman, B. & Trojanowski, J. Consensus recommendations for the postmortem diagnosis of Alzheimer disease from the National Institute on Aging and the Reagan Institute Working Group on diagnostic criteria for the neuropathological assessment of Alzheimer disease. J Neuropathol Exp Neurol 56, 1095-1097. (1997)). […]
The fluorescent probe (F-AI-183) labels fibrillar amyloid (arrow). The slides were analyzed on a using a Nikon Ti-E PFS inverted microscope equipped with a Nikon 10×0.3 NA Plan APO objective, Prior H117 ProScan flat top linear encoded stage, and Prior Lumen 200PRO illumination system with standard DAPI and FITC filter sets. […] Images were processed and analyzed using the Image J software package (NIH).

[2] = tested on: Human Pancreatic Cancer Cells (PANC1); assay: Live cell fluorescence imaging; format: cell-based; conditions: 5 μM, 37° C., 30 min
Experimental: (§1) In these experiments, human carcinoma cells were incubated with AI-182
(§2) (5 μM) at 37° C. in the presence of 5% CO2 for 30 min, and examined using a Nikon Ti-E PFS inverted high resolution microscope equipped with a Nikon (Magnification: 20×) Plan APO objective, Prior H117 ProScan flat top linear encoded stage, and Prior Lumen 200PRO illumination system with standard DAPI and FITC filter sets. Top row: Live Cell Imaging of Human Glioblastoma (U87) Cells Using AI-182. Middle row: Live Cell Imaging of Human Pancreatic Cancer Cells (PANC1) Using AI-182. Bottom row: Live Cell Imaging of Human Pancreatic Cancer Cells (Mia PaCa-2) Using AI-182.

[3] = tested on: Human Glioblastoma (U87) Cells; assay: Live cell fluorescence imaging; format: cell-based; conditions: 5 μM, 37° C., 30 min
Experimental: as §1, §2

[4] = tested on: Human Pancreatic Cancer Cells (Mia PaCa-2); assay: Live cell fluorescence imaging; format: cell-based; conditions: 5 μM, 37° C., 30 min
Experimental: as §1, §2

Aβ plaques [5] = target: T1, Aβ plaques (Homo sapiens, UniProt P05067); assay: Multiphoton imaging in live APP/PS1 mice; format: in vivo, mouse
T1 construct: from tissue; host or cells: brain of APPsw+/-/PS1 (and APPsw+/-) transgenic mice: sections ex vivo, and live animals for multiphoton imaging
T1 sequence (P05067 672-713 limits assumed): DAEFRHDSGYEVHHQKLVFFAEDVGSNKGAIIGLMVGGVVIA
Experimental: Prior to imaging, dextran-Texas Red was injected for mapping the blood vessels. Following labeling of blood vessels, F-AI-182 (2 mg/kg, dissolved in DMSO/PEG; 20:80) was intravenously injected. A z-stack image series was acquired from cortex surface to a depth of approx. 100 μm using microscope LSM 510META NLO (Carl-Zeiss Inc). […] The labeling of brain parenchymal plaques was visible within 10 min, indicating facile clearance from non-targeted regions and remained labeled for 30 min (FIG. 6). Multi-photon imaging can be done using ^18F-AI-182, other agents, or second generation agents (Bacskai, B., et al. Four-dimensional multiphoton imaging of brain entry, amyloid binding and clearance of an amyloid-3 ligand in transgenic mice. Proc Natl Acad Sci USA 100, 12462-12467 (2003)).

preformed Aβ1-42 fibrils = target: T2, preformed Aβ1-42 fibrils (Homo sapiens, UniProt P05067); assay: Binding assay with preformed Aβ1-42 fibrils/aggregates in PBS (fluorescence); conditions: PBS
T2 construct: preformed Aβ1-42 fibrils
T2 sequence (P05067 672-713 limits assumed): as above
Source text: In some embodiments of the present teachings, binding assays to preformed fibrils or AD brain homogenate extracts can be performed using literature procedures (Klunk, W., et al. Uncharged thioflavin-T derivatives bind to amyloid-beta protein with high affinity and readily enter the brain. Life Sci 69, 1471-1484 (2001); Zhen, W., et al. Synthesis and amyloid binding properties of rhenium complexes: preliminary progress towards a reagent for SPECT imaging of Alzheimer's disease brain. J Med Chem 42, 2805-2815 (1999)). Prior to binding assays, the stock solution (2 μM) can be thawed. To aliquots of this stock solution, ^18F-AI-182 (also exemplified for either ^18F-AI-183 or ^18F-AI-187) can be added at various concentrations to a final concentration of 200 nM Aβ fibrils or 200 μL of AD brain extracts (20-25 μg). The aggregate-bound ^18F-AI-182 (or other analogues) can be collected on Whatman GF filters using Brandon M-24R cell harvester, washed, and counted in a γ-counter (Perkin Elmer). Inhibition constants (Ki) can be calculated as described previously (Han, H., Cho, C. & Lansbury, P. J. Technetium complexes for quantification of brain amyloid. J Am Chem Soc 118, 4506-4508 (1996)). Binding assay results can assist in evaluation of target specificity.
Binding assays of F-AI-182 with preformed Aβ1-42 aggregates were performed in PBS. […] Fluorescence was not observed using Aβ aggregates alone in PBS upon excitation at 410 nm (a negative control). […] Comparative analyses can be performed with other compounds such as AV-45, BAYER 94-9172, and AZD4694. An agent can be interacting with either of the two modestly high affinity binding sites (BS1& BS2) or recognizing an entirely new site on Aβ1-42. F-AI-182 can register different complementary binding sites in relation to Aβ-pathophysiology compared to current agents.

Hydrophobicity (log P) = format: physicochemical
Aβ plaques [6] = target: T1, Aβ plaques; assay: Ex vivo staining of mouse brain sections; format: binding; conditions: 24 months
Experimental: FIG. 2 illustrates ex vivo staining studies were performed on brain sections (50 μm) of an APPsw^+/−/PS1 mouse (24 months old) and a control WT mouse (BL/6; 24 months old) using well-established procedures. Briefly, tissue sections were immunostained with mouse monoclonal antibody and visualized by donkey-anti-mouse HJ3.4 Aβ monoclonal antibody-Alexa 568 as a positive control. […] By comparison, no staining in WT mice was seen either with F-AI-182 or the antibody indicating the targeting specificity of F-AI-182. The slides were analyzed on a Zeiss LSM 5 PASCAL confocal system coupled to a Zeiss Axiovert 200 microscope.
The slides were analyzed using a Nikon Ti-E PFS inverted microscope equipped with a Nikon 10x 0.3 NA Plan APO objective, Prior H117 ProScan flat top linear encoded stage, and Prior Lumen 200PRO illumination system with standard DAPI and FITC filter sets. The images were acquired using a Photometrics CoolSNAP HQ2 digital camera and MetaMorph microscopy automaton, and imaging software. Images were processed and analyzed using the Image J software package (NIH).

SMILES: CN(C)c1ccc(/C=C/c2nc3ccc(OCCF)cc3s2)cn1 [F-AI-182]
- staining of Aβ plaques in human AD brain sections (Aβ plaques [1]): detect both diffuse and compact AP plaques; also recorded: stains both fibrillar and diffuse plaques; also recorded: abundant staining of Aβ plaques
- probe uptake in cells (fluorescence) [2]: accumulation of the probe within cells
- probe uptake in cells (fluorescence) [3]: accumulation of the probe within cells
- probe uptake in cells (fluorescence) [4]: accumulation of the probe within cells
- time at which labeling of brain parenchymal plaques was visible (Aβ plaques [5]; live APP/PS1 mice): ≤ 10 min
- time plaques remained labeled (Aβ plaques [5]; live APP/PS1 mice): 30 min
- labeling of plaques in vivo by multi-photon microscopy (Aβ plaques [5]; live APPsw+/−/PS1 mice, 2 mg/kg i.v., 2 mg/kg): label plaques in brain parenchyma and blood vessels (CAA)
- Kd (preformed Aβ1-42 fibrils; concentration dependent and saturable binding, read-out: binding constant (Kd) to preformed Aβ1-42 fibrils): 59 ± 7 nM
- fluorescence of 570 nm peak upon incubation with preformed Aβ(1-42) aggregates (preformed Aβ1-42 fibrils; excitation 410 nm): remarkable enhancement in the fluorescence
- logP (Hydrophobicity (log P)): 1.2
- staining of plaques in hippocampus and cortical region of brain sections (Aβ plaques [6]; APPsw+/−/PS1 mice, 100 nM, 60 min): staining of both fibrillar and diffuse plaques; also recorded: stains both fibrillar and diffuse plaques; also recorded: abundant staining of fibrillar and diffuse plaques
- staining of brain sections of WT mice (Aβ plaques [6]; WT BL/6 mouse): no staining
